In PubChem BioAssay (NCI):
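Test compounds were applied to cells in 96-well plates for 48 hours at 5 doses. At the GI50, growth is halved. Definition used: TGI = concentration required for complete inhibition of growth.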

Assays:
Test in all cases: inhibition of tumour cell growth, NCI panel, 48 h
UACC-257 melanoma = system: UACC-257 melanoma
SK-MEL-5 melanoma = system: SK-MEL-5 melanoma
SW-620 colon = system: SW-620 colon
SNB-19 CNS = system: SNB-19 CNS
IGROV1 ovarian = system: IGROV1 ovarian
HCT-116 colon = system: HCT-116 colon
A498 renal = system: A498 renal
OVCAR-4 ovarian = system: OVCAR-4 ovarian
ACHN renal = system: ACHN renal
SK-MEL-2 melanoma = system: SK-MEL-2 melanoma

Row | SMILES | GI50 (UACC-257 melanoma) | TGI (UACC-257 melanoma) | GI50 (SK-MEL-5 melanoma) | TGI (SK-MEL-5 melanoma) | GI50 (SW-620 colon) | TGI (SW-620 colon) | GI50 (SNB-19 CNS) | TGI (SNB-19 CNS) | GI50 (IGROV1 ovarian) | TGI (IGROV1 ovarian) | GI50 (HCT-116 colon) | TGI (HCT-116 colon) | GI50 (A498 renal) | TGI (A498 renal) | GI50 (OVCAR-4 ovarian) | TGI (OVCAR-4 ovarian) | TGI (ACHN renal) | TGI (SK-MEL-2 melanoma) | GI50 (ACHN renal) | GI50 (SK-MEL-2 melanoma)
1 | CCN(CC)CCCC(C)N=C(C1=C(C(=NC(C)CCCN(CC)CC)c2cccc(OC)c2)C(=O)NC1=O)c1cccc(OC)c1 (configuration not stated) | 0.952 µM | 1.75 µM | 0.888 µM | 1.66 µM | 0.71 µM | 2.38 µM | 3.71 µM | 16.4 µM | 3.67 µM | 20.6 µM | 0.747 µM | 1.89 µM | 1.85 µM | 8.38 µM | 1180 nM | 3.49 µM | – | – | – | –
2 | CC1(C)C2CC(=O)C1(C)C(OCc1ccccc1)C2 (configuration not stated) | – | > 100 µM | – | > 100 µM | – | 87.3 µM | – | > 100 µM | – | > 100 µM | – | 66.1 µM | – | > 100 µM | – | – | > 100 µM | > 100 µM | – | –
3 | COc1cc(CNC2c3cc4c(cc3C(c3cc(OC)c(OC)c(OC)c3)[C@H]3C(=O)OCC23)OCO4)cc(OC)c1OC (some centres not stated) | – | > 100 µM | – | 0.538 µM | – | > 100 µM | – | > 100 µM | – | > 100 µM | – | 0.707 µM | – | 0.762 µM | – | – | > 100 µM | > 100 µM | – | –
4 | O=[N+]([O-])C1Cc2ccccc2OC1c1ccccc1 (configuration not stated) | – | > 100 µM | – | > 100 µM | – | > 100 µM | – | > 100 µM | – | > 100 µM | – | > 100 µM | – | > 100 µM | – | > 100 µM | > 100 µM | – | – | –
5 | O=C1OC(O)C(Oc2c(Cl)cccc2Cl)=C1Cl (configuration not stated) | – | 42.1 µM | – | 27.5 µM | – | 28.3 µM | – | 78.1 µM | – | 46.2 µM | – | 27.9 µM | – | 51.1 µM | – | – | 42.3 µM | 34.2 µM | – | –
6 | CCC(CNc1cc(OC)cc2cccnc12)NC1CCCCC1 (configuration not stated) | 41.1 µM | > 100 µM | 15.8 µM | 30.6 µM | 19.4 µM | 56.7 µM | 89.7 µM | > 100 µM | 10.6 µM | 44.9 µM | 10.9 µM | 27.9 µM | 29.7 µM | > 100 µM | 6200 nM | > 100 µM | > 100 µM | – | 49.7 µM | –
7 | Cn1c(=O)c2nc(-c3ccc(Cl)cc3)oc2n(C)c1=O | – | > 100 µM | – | > 100 µM | – | > 100 µM | – | > 100 µM | – | – | – | > 100 µM | – | > 100 µM | – | > 100 µM | > 100 µM | > 100 µM | – | –
8 | CCOC(=N)/C(=C1\OC(N)=C(c2ccc(Cl)cc2)C1=O)c1ccc(Cl)cc1 | – | 35.1 µM | – | – | – | 32.1 µM | – | 49.9 µM | – | > 100 µM | – | 30.7 µM | – | 32.5 µM | – | 31.9 µM | 51 µM | – | – | –
9 | Cc1c(C(=O)/C=C/c2ccccc2O)c(=O)n(-c2ccccc2)n1C | – | 89.7 µM | – | 28.6 µM | – | 35.5 µM | – | > 100 µM | – | > 100 µM | – | 34.6 µM | – | 90 µM | – | – | 45.2 µM | 38.4 µM | – | –
10 | CC(=O)On1c(-c2ccccc2-c2nc3ccccc3n2OC(C)=O)nc2ccccc21 | – | > 100 µM | – | 13.7 µM | – | > 100 µM | – | > 100 µM | – | > 100 µM | – | > 100 µM | – | – | – | – | > 100 µM | 88.6 µM | – | –
11 | CN(C)C(=O)OC(Cn1cncn1)(Cn1cncn1)c1ccc(Cl)cc1Cl | – | > 100 µM | – | > 100 µM | – | > 100 µM | – | > 100 µM | – | > 100 µM | – | – | – | > 100 µM | – | > 100 µM | – | > 100 µM | – | –
12 | O=C(CNc1ccccc1[N+](=O)[O-])Nn1c(-c2ccccc2)nc2ccccc2c1=O | – | > 10 µM | – | 22.1 µM | – | 42.2 µM | – | 47.8 µM | – | 34.8 µM | – | 41.4 µM | – | 81.1 µM | – | 32.1 µM | 56.9 µM | – | – | –
13 | CCCN(CCCC(NC(C)=O)C(=O)NCc1ccccc1)C(=O)NCCCl (configuration not stated) | – | > 100 µM | – | – | – | > 100 µM | – | > 100 µM | – | > 100 µM | – | > 100 µM | – | – | – | > 100 µM | > 100 µM | > 100 µM | – | –
14 | CC(C)(C)C1CCC2c3c([nH]c4ccccc34)C3C(=O)N(c4ccccc4)C(=O)C3C2C1 (configuration not stated) | – | – | – | – | – | 41 µM | – | 22.5 µM | – | 39.4 µM | – | – | – | 5.99 µM | – | 5.36 µM | 26.2 µM | – | – | –
15 | CCn1c(-c2cc3ccccc3cc2O)nn(C(=O)c2c(Cl)cccc2Cl)c1=S | > 50 µM | > 50 µM | 10 µM | 19.7 µM | 15.3 µM | > 50 µM | > 50 µM | > 50 µM | 6.63 µM | 16.6 µM | 28.5 µM | > 50 µM | – | – | > 50000 nM | > 50 µM | > 50 µM | 21.1 µM | 16.2 µM | 9050 nM
16 | O=C(OCc1ncc(-c2ccc(C(F)(F)F)cc2)c(NC2CCCCCC2)n1)c1c(F)c(F)c(F)c(F)c1F | 17.5 µM | 35 µM | 16 µM | 30.3 µM | 7.21 µM | 26.6 µM | 14.1 µM | 27.7 µM | 2.86 µM | 7.28 µM | 8.46 µM | 25.9 µM | 18.7 µM | 33.2 µM | 15500 nM | 30.6 µM | 29.2 µM | – | 14.2 µM | –
17 | CSc1n[n+]2c(s1)SCCC2 | – | > 100 µM | – | > 100 µM | – | > 100 µM | – | > 100 µM | – | > 100 µM | – | > 100 µM | – | – | – | > 100 µM | > 100 µM | – | – | –
18 | O=C1C(Cl)C(c2ccccc2O)N1n1cnc2ccccc2c1=O (configuration not stated) | – | > 100 µM | – | > 100 µM | – | > 100 µM | – | > 100 µM | – | > 100 µM | – | > 100 µM | – | – | – | > 100 µM | > 100 µM | > 100 µM | – | –
19 | Cn1c2ccc(Br)cc2c2c3c(c4c5ccccc5[nH]c4c21)C(=O)N(O)C3=O | – | – | 0.128 µM | 0.266 µM | 0.0787 µM | 0.394 µM | 0.0777 µM | 0.696 µM | 0.262 µM | 1.07 µM | 0.112 µM | 0.414 µM | – | – | 244 nM | 0.705 µM | 0.244 µM | 0.469 µM | 0.0448 µM | 226 nM
20 | CCN(CC)CCCNC(=O)c1c2c(n3ccccc13)C(=O)c1ncccc1C2=O | 0.491 µM | 1.71 µM | 0.275 µM | 1.24 µM | 0.367 µM | 1.67 µM | 1.09 µM | 2.67 µM | – | – | 0.25 µM | 1.09 µM | 1.66 µM | 3.27 µM | 164 nM | 0.903 µM | 3.16 µM | 3.89 µM | 0.395 µM | 1700 nM
